Data set [1] concerns influenza A virus A/Jena/5258/2009 (pandemic H1N1; oseltamivir-sensitive). The class given is cell-based.
Data set [2] deals with influenza A virus A/Jena/5258/2009. As to the kind of experiment: microbe, parasite or virus in culture. Format: cell-based, influenza A virus H1N1. As to conditions: read-out: 50% inhibitory concentration, A/Jena/5258/2009.
Data set [3] concerns influenza A virus A/342/2009. As to the kind of experiment: microbe, parasite or virus in culture. As to conditions: read-out: 50% inhibitory concentration, A/342/2009. Format: cell-based, influenza A virus H1N1.
A further data set in a line: physchem. Format: physicochemical. As to conditions: thermodynamic from solid; for solubility: read-out: maximum soluble concentration. As to the method: 2. Solubility Assays of the Compounds Tested
Determining the Solubility at Different pH Values:
Therefor, a few mg of the compounds were weighed and mixed with the volume of 50 mM KH2PO4 buffer of respective pH value for a 50 mM solution. […] Subsequently, the undissolved portion was removed by centrifugation at 10.000 rpm for 15 min, and the concentration in the supernatant was determined by HPLC.

The next data set has as its target albumin (Homo sapiens, UniProt P02768). Format: in vitro ADME. As to conditions: 4% albumin solution, average of three concentrations (10, 25, 50 μM). As to the method:
3. Determination of Protein Binding of the Amidine Effective Form (3) as Well as of Prodrugs Thereof (2, 4) and of the Guanidine Effective Form (9) as Well as of Prodrugs Thereof (6, 10)
The plasma protein binding was carried out in three different concentrations (10, 25, and 50 μM). A 4% albumin solution was used as protein solutions. In each case, 50 μl of a 10-fold concentrated substance solution were pipetted in 450 μl of the protein solution. The incubation was carried out for 15 minutes in the shaking water bath at 37° C. Subsequently, the samples were transferred in ultra-filtration units (Vivaspin 500, 10 kDa cut-off) and centrifuged for 15 min at 10.000 rpm. The filtrate was analyzed by HPLC. In addition, a control was run for each concentration, which was not treated with protein and not centrifuged.

The next data set is described as follows: in vivo. As to conditions: Sprague Dawley, rat, in vivo, po, 50 mg/kg. As to the method: Sprague Dawley (SD) rats were supplied for habitation 10 days before the start of the experiment, weighing ˜300-350 g and kept in an air conditioned room with a constant temperature of 20° C. and a humidity of 50%. In this room there was a day-night rhythm of twelve hours. The dark phase began daily at 18 o'clock and turned over to the light phase at 6 clock. The rats were kept over the acclimatization period in standard cages of the size 3 (length: 42 cm, width 26 cm, height: 15 cm) and transferred three days before commencement of an experiment into a special experimental room, placed in the identical environmental conditions. They received a maintenance diet (maintenance diet for rats and mice; No. 1320; Altromin) and tap water ad libitum.
A catheter was implanted in the vein as well as in the arteria femoralis of rats receiving an i.v. administration. Rats receiving only oral administration of substances received a […] catheter only.
The catheterized animals were kept after surgery for a day in the experimental room and individually in their experimental cages. The application of the test compounds was carried out on the second day after the operation. On the experimental day, the rats were weighed one hour prior to the test and the arterial catheter was flushed with 300 μl of heparin solution. Subsequently, the i.v. or oral administration of the compounds was carried out.
The oral administrations were performed as a suspension or solution made with gum arabic (10% w/v) by gavage.
The oral administrations were made as suspension or solution with gum arabic (10% w/v) by gavage.
After i.v. administration, plasma samples were taken at 5, 10, 20, 45, 90, 150, 240 and 360 min, respectively after oral administration after 30, 60, 90, 120, 180, 240 and 360 min. To this, in each case 300 μl of whole blood were taken using an insulin syringe and transferred into EDTA-coated Microvettes CB 300 (Sarstedt, Nümbrecht). After each withdrawal it was rinsed with 100 μl 0.9% saline or every 60 min with heparin solution (250 IU/ml). The blood sample was shaken briefly and put until centrifugation (4° C.; 14000 U/min; 10 min) on ice. Subsequently, the samples were frozen at −80° C.
The plasma samples were processed and analyzed by HPLC. Therefor, the plasma samples were thawed at room temperature. In each case, 80 μl methanol (+0.2% TFA) were prepared and subsequently 80 μl of the plasma samples were pipetted into. The samples were shaken for 45 min to precipitate plasma proteins. The samples were frozen at −80° C., thawed and shaken for another 15 min. The samples were centrifuged for 15 min at 13.000 RPM and the supernatant was transferred into HPLC vials. In each case 50 μl were used for the determinations by LC/MS.
The animal studies were evaluated using the following LC/MS method.

We go through three compounds from patent US9828333B2, “Compounds for the treatment of influenza” (CHRISTIAN-ALBRECHTS-UNIVERSITAT ZU KIEL, priority 2011, dated 2017).

Values after ≈ are worked out from the molar mass of the structure shown. Values joined by “and” are separate entries in the source; they are usually repeats but may differ in a detail not shown here. Equal values may be shown once. Where a name gives a salt, the structure may show the parent alone. Read-outs that look alike come from different tables or passages of the source.

albumin, sequence (P02768 25-609): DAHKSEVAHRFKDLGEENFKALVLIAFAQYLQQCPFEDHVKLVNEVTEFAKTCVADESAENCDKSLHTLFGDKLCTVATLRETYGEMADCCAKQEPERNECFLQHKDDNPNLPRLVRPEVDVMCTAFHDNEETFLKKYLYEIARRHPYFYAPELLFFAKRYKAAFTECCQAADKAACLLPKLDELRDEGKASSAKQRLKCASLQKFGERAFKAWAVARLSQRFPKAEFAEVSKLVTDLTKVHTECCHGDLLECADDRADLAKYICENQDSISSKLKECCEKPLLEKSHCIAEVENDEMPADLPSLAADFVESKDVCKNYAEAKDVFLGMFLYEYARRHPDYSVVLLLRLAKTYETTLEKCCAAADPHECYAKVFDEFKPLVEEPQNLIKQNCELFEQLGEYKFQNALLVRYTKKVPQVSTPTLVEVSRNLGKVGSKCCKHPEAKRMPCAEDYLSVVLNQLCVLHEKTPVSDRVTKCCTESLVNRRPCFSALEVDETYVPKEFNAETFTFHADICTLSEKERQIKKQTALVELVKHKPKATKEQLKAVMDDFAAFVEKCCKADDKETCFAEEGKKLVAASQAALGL

Turning to `CC(=O)N[C@H]1[C@H]([C@H](O)[C@H](O)CO)OC(C(=O)O)=C[C@@H]1N=C(N)N` [Zanamivir, reference compound], in data set [1], the “90% inhibitory concentration, A/Jena/5258/2009” value is reported as 0.125 (0.219) μM and the “95% inhibitory concentration (values in parentheses), A/Jena/5258/2009” value is recorded as 0.125 (0.219) μM. The IC50 in data set [2] was greater than 19.5 µM. The IC50 in data set [3] was determined as 600 nM.
`CCOC(=O)C1=C[C@@H](OC(CC)CC)[C@H](NC(C)=O)[C@@H](N/C(C)=N/O)C1` [Compound 4, (3R,4R,5S)-4-acetamido-5-[N—(N′-hydroxy)acetimidamido]-3-(1-ethylpropoxy)cyclohex-1-en-1-carboxylic acid ethyl ester]: the solubility at 30 min in “physchem” (aqueous buffer) was greater than 20 mM; in the data set “physchem” (pH 2, aqueous buffer), > 18500 µg/mL and > 50000 µM; in the data set “physchem” (pH 7.4, aqueous buffer), 8600 ± 400 µg/mL; in “physchem” (pH 9, aqueous buffer), 8600 ± 700 µg/mL. Also, the solubility is 23.2 ± 1.2 mM (≈ 8570 µg/mL) in the data set “physchem” (aqueous buffer, pH 7.4, 50 mM KH2PO4 buffer) and 23.3 ± 1.8 mM (≈ 8610 µg/mL) in “physchem” (aqueous buffer, pH 9.0, 50 mM KH2PO4 buffer). This compound had a Protein binding at albumin of 26.7 ± 2.5%. Besides, the “Plasma level of derivative 3 (Conc.) after oral administration of the labelled derivative” value (“Plasma level … of the labelled derivative” for short) in the data set “in vivo” (0 min) was found to be 0.00 µM; in the data set “in vivo” (30 min), 6.50 µM; in the data set “in vivo” (60 min) it was 8.98 µM; in the data set “in vivo” (90 min), 8.80 µM; in “in vivo” (120 min), 8.10 µM; in the data set “in vivo” (180 min) it was 6.43 µM. The entries for the “Plasma level … of the labelled derivative” value in the data set “in vivo” (240 min) and in the data set “in vivo” (360 min) were 5.34 µM and 2.19 µM, respectively. The “Plasma level of intermediary metabolite 11 (Conc.) after oral administration of derivative 4” value in the data set “in vivo” (0 min) turned out to be 0.00 µM; in “in vivo” (30 min), 7.22 µM; in “in vivo” (60 min), 2.68 µM; in “in vivo” (90 min) it was 2.16 µM; in the data set “in vivo” (120 min), 1.96 µM; in the data set “in vivo” (180 min) it was 0.85 µM. In addition, the “Plasma level of intermediary metabolite 11 (Conc.) after oral administration of derivative 4” value turned out to be 0.49 µM in the data set “in vivo” (240 min) and 0.13 µM in the data set “in vivo” (360 min).
Consider `CCOC(=O)C1=C[C@@H](OC(CC)CC)[C@H](NC(C)=O)[C@@H](NC(C)=N)C1` [Compound 2, (3R,4R,5S)-4-acetamido-5-(N-acetimidamido)-3-(1-ethylpropoxy)cyclohex-1-en-1-carboxylic acid ethyl ester hydrobromide], for which the solubility at 30 min in “physchem” (aqueous buffer) is greater than 50 mM; in “physchem” (pH 2, aqueous buffer), > 17700 µg/mL and > 50000 µM; in “physchem” (pH 7.4, aqueous buffer), > 17700 µg/mL and > 50000 µM; in “physchem” (pH 9, aqueous buffer), > 17700 µg/mL and > 50000 µM. The Protein binding on albumin is 34.8 ± 8.8%. The compound also had a Bioavailability in the data set “in vivo” of 0.8%. Further, the “Plasma level … of the labelled derivative” value in “in vivo” (0 min) was found to be 0 µM; in “in vivo” (30 min) it was 0.43 µM; in “in vivo” (60 min), 0.35 µM; in “in vivo” (90 min), 0.33 µM; in the data set “in vivo” (120 min) it was 0.29 µM; in the data set “in vivo” (180 min) it was 0.07 µM. The “Plasma level … of the labelled derivative” value was 0.01 µM in the data set “in vivo” (240 min) and 0.00 µM in “in vivo” (360 min).
